Experiment: Sensory evaluation of sweetness linger and taste by expert panel
Set-up: key: 0=no sweetness linger; 1=very slight sweetness linger; 2 slight sweetness linger; 3=moderate sweetness linger; 4=moderately high sweetness linger; 5=high sweetness linger
Conditions: scale 0-5
Experimental: In a particular embodiment, a panel of assessors is used to measure the reduction of sweetness linger. Briefly described, a panel of assessors (generally 8 to 12 individuals) is trained to evaluate sweetness perception and measure sweetness at several time points from when the sample is initially taken into the mouth until 3 minutes after it has been expectorated. […] A decrease in score for a time point measured after the sample has cleared the mouth indicates there has been a reduction in sweetness perception.
The panel of assessors may be trained using procedures well known to those of ordinary skill in the art. In a particular embodiment, the panel of assessors may be trained using the Spectrum™ Descriptive Analysis Method (Meilgaard et al, Sensory Evaluation Techniques, 3rd edition, Chapter 11). Desirably, the focus of training should be the recognition of and the measure of the basic tastes; specifically, sweet. In order to ensure accuracy and reproducibility of results, each assessor should repeat the measure of the reduction of sweetness linger about three to about five times per sample, taking at least a five minute break between each repetition and/or sample and rinsing well with water to clear the mouth.
Generally, the method of measuring sweetness comprises taking a 10 mL sample into the mouth, holding the sample in the mouth for 5 seconds and gently swirling the sample in the mouth, rating the sweetness intensity perceived at 5 seconds, expectorating the sample (without swallowing following expectorating the sample), rinsing with one mouthful of water (e.g., vigorously moving water in mouth as if with mouth wash) and expectorating the rinse water, rating the sweetness intensity perceived immediately upon expectorating the rinse water, waiting 45 seconds and, while waiting those 45 seconds, identifying the time of maximum perceived sweetness intensity and rating the sweetness intensity at that time (moving the mouth normally and swallowing as needed), rating the sweetness intensity after another 10 seconds, rating the sweetness intensity after another 60 seconds (cumulative 120 seconds after rinse), and rating the sweetness intensity after still another 60 seconds (cumulative 180 seconds after rinse). Between samples take a 5 minute break, rinsing well with water to clear the mouth.
Sensory evaluation of the samples prepared in Example Set G was carried out under the following protocol, similar to that described hereinabove. In this test protocol, none of the samples were swallowed. […] Immediately upon sensing maximal sweetness, the sample was expectorated, the mouth was rinsed with water and the rate of sweetness decay (“Sweetness Linger”) was measured, where attention was focused on the sweetness 3-4 min after the water rinse. […]

[1] = Example Set G, citric acid/potassium citrate composition equivalent to diet lemon-lime beverage, sweetness 3-4 min after water rinse
[2] = Example Set H, carbon-treated water with phosphoric acid (75%), pH 2.4-2.5

Molecule: OC[C@H]1O[C@@](CO)(O[C@H]2O[C@H](CO)[C@@H](O)[C@H](O)[C@H]2O)[C@@H](O)[C@@H]1O [sugar, sucrose]
- Sweetness linger [1]: 0
- Sweetness linger [2]: 0

Molecule: rebaudioside A
- Sweetness linger [1]: 5
- Sweetness linger [2]: 5

Source: US8945652B2, “High-potency sweetener for weight management and compositions sweetened therewith” (The Coca-Cola Company, priority 2005, dated 2015)
